Broadly, the IC50 is the concentration that gives 50% inhibition. Low values mean greater potency in that assay, high ones weaker potency in that assay.

Active and inactive are the calls of the source.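 How the source made its calls: active means blocking male or female gamete formation with potency of about 10 µM or stronger; inactive means the rest.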

The test system of test [1] is P. falciparum 3D7A gametocytes, male exflagellation, 48 h. Kind of test: transmission-blocking activity on Pf gametocytes – dual gamete formation, strain 3D7A, dose response (AID 2060597).
Assay in test [2]: as above
The following applies: P. falciparum 3D7A gametocytes, male exflagellation, 48 h.

Take `N#Cc1cccc(NC(=O)CNc2ccccc2C(=O)NC2CC2)c1`: the IC50 in test [1] was over 10 µM.
`COc1ccc(-c2ccc(CNC(=O)c3cc(C(=O)NC(C)C)ccc3Cl)cc2)cn1` showed an IC50 in test [1] of over 10 µM.
The same measure, in the same setting: the same measure for `O=C(Nc1ccc(N2CCCC2)nc1)N1CCN(c2cnccn2)CC1`: over 10 µM; for `O=C1CSc2ccc(C(=O)Nc3ccc(-c4nnc5n4CCCCC5)cc3)cc2N1`: over 10 µM.
The same measure, in the same setting: the same measure for `CN(C(=O)C[C@@H]1CCN(C(=O)C2CC2)C1)c1ccc(-c2ccc(C#N)cc2)cc1`: over 10 µM.
In test [1], `COc1ccc(NC(=O)c2ccc3c(=O)n(Cc4ccccn4)cnc3c2)cc1N1CCN(C)CC1` came in with a 50% inhibitory concentration (IC50) of over 10 µM.
On the same count and under the same terms, the same measure for `O=C(CCn1nnc2cc(S(=O)(=O)N3CCCC3)ccc21)N1CCN(c2ccccn2)CC1`: over 10 µM.
Still for that read-out and setting: the same measure for `O=C(CCCc1ncc(-c2ccccc2)o1)N1CCOC2CCCC21` (stereo not drawn): over 10 µM.
On the same count and under the same terms, the same measure for `O=C(/C=C/c1n[nH]c2ccccc12)N1CCN(c2cnccn2)CC1`: over 5.01 µM.
For the molecule `Cc1nn(C2CCS(=O)(=O)C2)c(C)c1CN(C)C(=O)CN1C(=O)NC2(CCCCC2C)C1=O` (stereo not drawn), the IC50 in test [1] is over 10 µM.
The same measure, in the same setting: the same measure for `CCN(CC)c1ccc(C(=O)COc2ccc3c(c2)CCNCC3)cc1`: over 10 µM; for `CCN(C(=O)C=Cc1ccc(S(=O)(=O)N2CCc3ccccc32)cc1)C1CCS(=O)(=O)C1` (stereo not drawn): over 10 µM; for `COc1ccc2oc(C(=O)NC3CCC(Oc4ncccn4)CC3)cc2c1` (stereo not drawn): over 10 µM.
With `O=C(/C=C/c1n[nH]c2ccccc12)Nc1ccc(C(=O)NCCN2CCOCC2)cc1`, the concentration for half-maximal inhibition (IC50) in test [1] was over 10 µM.
Still for that read-out and setting: the same measure for `Cc1ccc2nc(CCNC(=O)CCS(=O)(=O)c3ccc4c(c3)CC(=O)N4C)[nH]c2c1`: over 10 µM.
Still for that read-out and setting: the same measure for `CCCOc1cncc(S(=O)(=O)c2ccc3c(c2)CCN(C2CCC2)CC3)c1`: over 10 µM; for `O=C(Nc1cccnc1)C1CCN(c2ccc(-c3ccco3)nn2)CC1`: over 10 µM; for `Cn1cccc1C1CCCN1CC(=O)Nc1ccc(S(=O)(=O)N2CCOCC2)cc1` (stereo not drawn): over 10 µM.
Still for that read-out and setting: the same measure for `Cc1cccc(-c2nn(Cc3ccc(C(=O)NCCCO)cc3)c(=O)cc2N2CCCC(CO)C2)c1` (stereo not drawn): over 10 µM; for `O=C(Nc1nnc(-c2ccccc2)s1)N1CCCN(c2ncccn2)CC1`: over 10 µM; for `O=C(CCCc1c[nH]c2ccccc12)N1CCN(c2ccc(N3CCOCC3)nn2)CC1`: over 10 µM.
`COc1ccc(C(=O)N2CCN(c3ccc(-n4cccn4)nn3)CC2)cc1OC`: the IC50 in test [1] was over 10 µM.
`O=C(NCCCN1CCc2ccccc21)c1ccc2c(=O)n(Cc3ccccn3)cnc2c1`: in test [2], the outcome was active.
In turn, `COc1ccc(N2CCN(C(=O)c3csc(Nc4ccccc4S(C)(=O)=O)n3)CC2)nc1` returned an IC50 in test [1] of over 10 µM.
As for `O=C(c1cc2ccccc2[nH]1)N1CCC2(CC(Nc3ccncn3)C2)C1` (stereo not drawn), the IC50 in test [1] was over 10 µM.
Still for that read-out and setting: the same measure for `O=C(COc1ccc(Br)cc1F)N1CCN(c2cnccn2)CC1`: over 10 µM.
Same read-out and setting: the same measure for `O=C1CCCN1c1ccc(S(=O)(=O)N2CCN(S(=O)(=O)c3ccccc3)CC2)cc1`: over 10 µM.
The same measure, in the same setting: the same measure for `Cc1cc(Cl)ccc1OCC(=O)N1CCc2c(cnc(C)c2CNC(=O)c2ccc(=O)[nH]n2)C1`: over 10 µM; for `CC(C)Oc1ccc(-c2nnc(Oc3cccc4c3CCN(CCC(N)=O)CC4)s2)cc1C#N`: over 10 µM; for `N#Cc1c(N)n[nH]c1CCCNC(=O)c1ccc(Cl)c(S(=O)(=O)N2CCCC2)c1`: over 10 µM.
In test [1], `Cc1cc(-c2cnc(N3CCn4c(nnc4C4CC4)C3)nc2-c2ccncc2)on1` showed a half-maximal inhibitory concentration (IC50) of over 10 µM.
Still for that read-out and setting: the same measure for `O=C(CCN=C1NS(=O)(=O)c2ccccc21)Nc1ccc(S(=O)(=O)N2CCCC2)cc1`: over 10 µM; for `NC(=O)CC1CCN(C(=O)c2sc3sccc3c2Cl)CC1`: over 10 µM.

For the origin of these results see PubChem BioAssay AID2060597 (Global Health Medicines R&D, GSK, 2025).
